According to patent EP0182135A2, “Novel bis-(substituted amino) anthraquinones” (AMERICAN CYANAMID COMPANY, priority 1984, dated 1986):
Several values for one entry are separate records, joined by “and”; a condition that tells them apart may be missing. Equal entries are not always repeated. Structures can show the parent of a compound that is named as a salt.

Experiments:
[1] = test system: lymphocytic leukemia P388; assay: Lymphocytic Leukemia P388 Test; assay type: in vivo, DBA/2 mice
Method: Lymphocytic Leukemia P388 Test
The animals used were DBA/2 mice all of one sex, weighing a minimum of 17 g and all within a 3 g weight range. There were 5 or 6 animals per test group. The tumor transplant was by intraperitoneal injection of 0.1 ml of dilute ascitic fluid containing 10^6 cells of lymphocytic leukemia P388. The test compounds were administered intraperitoneally on days 1, 5 and 9 (relative to tumor inoculation) at various doses. The animals were weighed and survivors were recorded on a regular basis for 30 days. The median survival time and the ratio of survival time for treated (T)/control (C) animals were calculated. The positive control compound was 1,4-dihydroxy-5,8-bis--[ [2-(2-hydroxyethylamino)ethyl ]amino]anthraquinone, dihydrochloride (U.S. Patent 4,197,249) given at the indicated doses by injection.

melanotic melanoma B16 = assay: Melanotic Melanoma B16 Test; assay type: in vivo, C57BC/6 mice
Method: The animals used were C57BC/6 mice, all of the same sex, weighing a minimum of 17 g and all within a 3 g weight range. There were normally 10 animals per test group. A 1.0 g portion of melanotic melanoma B16 tumor was homogenized in 10 ml of cold balanced salt solution and a 0.5 ml aliquot of the homogenate was implanted intraperitoneally into each of the test mice. The test compounds were administered intraperitoneally on days one through nine (relative to tumor inoculation) at various doses. The animals were weighed and survivors recorded on a regular basis for 60 days. The median survival time and the ratio of survival time for treated (T)/control (C) animals were calculated. The positive control compound was 1,4-dihydroxy-5,8-bis[[2-(2-hydroxyethylamino)-ethyl]amino]anthraquinone, dihydrochloride (U.S. Patent 4,197,249) given at the indicated doses by injection.

[2] = Dose 0.025 mg/kg intraperitoneally on days 1, 5 and 9, dihydrochloride, 0.025 mg/kg
[3] = Dose 0.1 mg/kg intraperitoneally on days 1, 5 and 9, dihydrochloride, 0.1 mg/kg
[4] = Dose 0.2 mg/kg intraperitoneally on days 1, 5 and 9
[5] = Dose 0.4 mg/kg intraperitoneally on days 1, 5 and 9, dihydrochloride, 0.4 mg/kg
[6] = Dose 0.8 mg/kg intraperitoneally on days 1, 5 and 9
[7] = Dose 1.6 mg/kg intraperitoneally on days 1, 5 and 9, dihydrochloride, 1.6 mg/kg
[8] = Dose 0.025 mg/kg by injection, dihydrochloride, 0.025 mg/kg
[9] = Dose 0.1 mg/kg by injection, dihydrochloride, 0.1 mg/kg
[10] = Dose 0.2 mg/kg intraperitoneally on days one through nine
[11] = Dose 0.4 mg/kg by injection, dihydrochloride, 0.4 mg/kg
[12] = Dose 0.8 mg/kg intraperitoneally on days one through nine
[13] = Dose 1.6 mg/kg by injection, dihydrochloride, 1.6 mg/kg
[14] = Dose 3 mg/kg intraperitoneally on days 1, 5 and 9
[15] = Dose 12 mg/kg intraperitoneally on days 1, 5 and 9
[16] = Dose 50 mg/kg intraperitoneally on days 1, 5 and 9
[17] = Dose 1.5 mg/kg intraperitoneally on days one through nine
[18] = Dose 6 mg/kg intraperitoneally on days one through nine
[19] = Dose 25 mg/kg intraperitoneally on days one through nine
[20] = Dose 100 mg/kg intraperitoneally on days one through nine

For `O=C1c2c(O)ccc(O)c2C(=O)c2c(NCCNCCO)ccc(NCCNCCO)c21` [Positive Control, 1,4-dihydroxy-5,8-bis--[ [2-(2-hydroxyethylamino)ethyl]amino]anthraquinone, dihydrochloride, reference compound], the “Median Survival” value [1, 2] was 17 days and 18 days and 16 days, the “T/C x 100 (%)” value [1, 2] was 170% and 171% and 145% and the “Median Survival” value [1, 3] was 25.5 days and 14.5 days and 16.5 days and 21.5 days. The “T/C x 100 (%)” value [1, 3] was 255% and 132% and 150% and 205% and 232%, the “Median Survival” value [1, 4] was 14.5 days and the “T/C x 100 (%)” value ([1]; Dose 0.2 mg/kg intraperitoneally on days 1, 5 and 9, dihydrochloride, 0.2 mg/kg) was 153% and 126%. For the same compound, the “Median Survival” value [1, 5] was 19.5 days and 27 days and >30 days and 19 days and 26.5 days, the “T/C x 100 (%)” value [1, 5] was 205% and 169% and 270% and >273% and 173% and 252% and the “Median Survival” value [1, 6] was 18 days. For the same compound, the “T/C x 100 (%)” value ([1]; Dose 0.8 mg/kg intraperitoneally on days 1, 5 and 9, dihydrochloride, 0.8 mg/kg) was 189% and 156%, the “Median Survival” value [1, 7] was >30 days and 19.5 days and the “T/C x 100 (%)” value [1, 7] was >316% and >261% and >300% and >273% and >286% and 177%. The “Median Survival” value ([1]; Dose 3.2 mg/kg by injection) was greater than 30 days, the “T/C x 100 (%)” value ([1]; Dose 3.2 mg/kg by injection, dihydrochloride, 3.2 mg/kg) was >261% and >316% and the “Median Survival” value (melanotic melanoma B16; [8]) was 28 days and 26 days and 33 days and 28.5 days. For the same compound, the “T/C x 100 (%)” value (melanotic melanoma B16; [8]) was 137% and 161% and 133%, the “Median Survival” value (melanotic melanoma B16; [9]) was 36 days and 31.5 days and 39 days and 32 days and 42 days and the “T/C x 100 (%)” value (melanotic melanoma B16; [9]) was 176% and 166% and 190% and 133% and 195%. For the same compound, the “Median Survival” value (melanotic melanoma B16; [10]) was 32 days, the “T/C x 100 (%)” value (melanotic melanoma B16; [10]) was 158% and the “Median Survival” value (melanotic melanoma B16; [11]) was 36 days and >60 days and 58 days. The “T/C x 100 (%)” value (melanotic melanoma B16; [11]) was 178% and >293% and >317% and >250% and 270%, the “Median Survival” value (melanotic melanoma B16; [12]) was 35 days and the “T/C x 100 (%)” value (melanotic melanoma B16; [12]) was 173%. For the same compound, the “Median Survival” value (melanotic melanoma B16; [13]) was >60 days and 38 days and 37 days and the “T/C x 100 (%)” value (melanotic melanoma B16; [13]) was >293% and >297% and 200% and >250% and 172%.
In the case of `CCOC(=O)NCCNc1ccc(NCCNC(=O)OCC)c2c1C(=O)c1c(O)ccc(O)c1C2=O` [[(9,10-Dihydro-5,8-dihydroxy-9,10-dioxo-1,4 anthracenediyl)bis(imino-2,1-ethanediyl)]bis-[carbamic acid]diethyl ester], the “Median Survival” value [1, 4] is reported as 11 days, the “T/C x 100 (%)” value [1, 4] is reported as 110% and the “Median Survival” value [1, 6] is reported as 14 days. For the same compound, the “T/C x 100 (%)” value [1, 6] was 140%, the “Median Survival” value [1, 14] was 17 days and the “T/C x 100 (%)” value [1, 14] was 170%. For the same compound, the “Median Survival” value [1, 15] was 21 days, the “T/C x 100 (%)” value [1, 15] was 210% and the “Median Survival” value [1, 16] was 21.5 days. The “T/C x 100 (%)” value [1, 16] was 215%, the “Median Survival” value (melanotic melanoma B16; [17]) was 29.5 days and the “T/C x 100 (%)” value (melanotic melanoma B16; [17]) was 156%. The “Median Survival” value (melanotic melanoma B16; [18]) was 39.5 days, the “T/C x 100 (%)” value (melanotic melanoma B16; [18]) was 209% and the “Median Survival” value (melanotic melanoma B16; [19]) was greater than 60 days. For the same compound, the “T/C x 100 (%)” value (melanotic melanoma B16; [19]) was greater than 317%, the “Median Survival” value (melanotic melanoma B16; [20]) was 38.5 days and the “T/C x 100 (%)” value (melanotic melanoma B16; [20]) was 204%.
